Source: ChEMBL document CHEMBL1143399, “A small-molecule nitroimidazopyran drug candidate for the treatment of tuberculosis” (Nature, 2000)
≈ marks a conversion by molar mass, not a printed value. Calls of active or inactive are those of the source. The calls are words filed in the database; no cut-off is given here.

Tests used:
[1] = test system: Mycobacterium tuberculosis; test: Antimicrobial activity against log phase recombinant Mycobacterium tuberculosis H37Rv-lux with plasmid MV361 at 10 ug/ml incubated for 7 days assessed as bacterial count; format: functional
[2] = test system: Mycobacterium tuberculosis; test: Antimicrobial activity against log phase recombinant Mycobacterium tuberculosis H37Rv-lux with plasmid MV361 at 10 ug/ml incubated for 7 days assessed as bacterial count after 4 days; format: functional
[3] = test system: Mycobacterium tuberculosis; test: Antimycobacterial activity against pan-susceptible Mycobacterium tuberculosis TN2524; format: functional
[4] = test system: Mycobacterium tuberculosis; test: Antimycobacterial activity against pan-susceptible Mycobacterium tuberculosis TN913; format: functional
[5] = test system: Mycobacterium tuberculosis; test: Antimycobacterial activity against pan-susceptible Mycobacterium tuberculosis TN1082; format: functional
[6] = test system: Mycobacterium tuberculosis; test: Antimycobacterial activity against pan-susceptible Mycobacterium tuberculosis TN2351; format: functional
[7] = test system: Mycobacterium tuberculosis; test: Antimycobacterial activity against pan-susceptible Mycobacterium tuberculosis TN3183; format: functional
[8] = test system: Mycobacterium tuberculosis; test: Antimycobacterial activity against pan-susceptible Mycobacterium tuberculosis TN1008; format: functional
[9] = test system: Mycobacterium tuberculosis; test: Antimycobacterial activity against pan-susceptible Mycobacterium tuberculosis TN4259; format: functional
[10] = test system: Mycobacterium tuberculosis; test: Antimycobacterial activity against pan-susceptible Mycobacterium tuberculosis TN1040; format: functional
[11] = test system: Mycobacterium tuberculosis; test: Antimycobacterial activity against pan-susceptible Mycobacterium tuberculosis TN1037; format: functional
[12] = test system: Mycobacterium tuberculosis; test: Antimycobacterial activity against pan-susceptible Mycobacterium tuberculosis H37Rv; format: functional
[13] = test system: Mycobacterium tuberculosis; test: Antimycobacterial activity against pan-susceptible Mycobacterium tuberculosis TN1051; format: functional
[14] = test system: Mycobacterium tuberculosis; test: Antimycobacterial activity against pan-susceptible Mycobacterium tuberculosis TN3979; format: functional
[15] = test system: Mycobacterium tuberculosis; test: Antimycobacterial activity against Mycobacterium tuberculosis H37Rv with plasmid MH102 infected in BALB/c mouse assessed as reduction in mycobacterial burden in lung at 50 mg/kg, po daily after 4 days of infection for 7 to 60 days relative to isoniazid; format: functional, organism-based; parameters: dose 50 mg/kg
[16] = test system: Mus musculus; test: Acute toxicity in Mycobacterium tuberculosis H37Rv infected BALB/c mouse at >1000 mg/kg, po single dose; format: organism-based; settings: in vivo
[17] = test system: Mycobacterium tuberculosis; test: Antimycobacterial activity against Mycobacterium tuberculosis H37Rv with plasmid MH102 infected in BALB/c mouse assessed as reduction in mycobacterial burden in lung at 25 mg/kg, po daily after 4 days of infection for 10 days relative to isoniazid; format: functional, organism-based; parameters: dose 25 mg/kg
[18] = test system: Mycobacterium tuberculosis; test: Antimycobacterial activity against Mycobacterium tuberculosis H37Rv with plasmid MH102 infected in BALB/c mouse assessed as reduction in mycobacterial burden in lung at 100 mg/kg, po daily after 4 days of infection for 7 to 60 days relative to isoniazid; format: functional, organism-based; parameters: dose 100 mg/kg
[19] = test system: Mycobacterium tuberculosis; test: Antimycobacterial activity against Mycobacterium tuberculosis H37Rv ATCC 27294 infected in Hartley guinea pig assessed as reduction in mycobacterial burden in spleen at 40 mg/kg, po daily after 30 days of infection for 30 days relative to isoniazid; format: functional, organism-based; parameters: dose 40 mg/kg
[20] = test system: Mycobacterium tuberculosis; test: Antimycobacterial activity against Mycobacterium tuberculosis clinical isolate IS6110 infected in mouse at 25 mg/kg, po; format: functional, organism-based; parameters: dose 25 mg/kg
[21] = test system: Mycobacterium tuberculosis; test: Antimycobacterial activity against Mycobacterium tuberculosis H37Rv ATCC 27294 infected in Hartley guinea pig assessed as reduction in mycobacterial burden in lung at 40 mg/kg, po daily after 30 days of infection for 30 days relative to isoniazid; format: functional, organism-based; parameters: dose 40 mg/kg
[22] = test system: Mus musculus; test: Chronic toxicity in Mycobacterium tuberculosis H37Rv infected BALB/c mouse at >500 mg/kg, po for 28 days; format: organism-based; settings: in vivo, 672 h
[23] = test system: Mycobacterium tuberculosis; test: Antimycobacterial activity against Mycobacterium tuberculosis H37Rv with plasmid MH102 infected in BALB/c mouse assessed as reduction in mycobacterial burden in spleen at 25 mg/kg, po daily after 4 days of infection for 10 days relative to isoniazid; format: functional, organism-based; parameters: dose 25 mg/kg

Question: What does the source list for `CCC1Cn2cc([N+](=O)[O-])nc2O1` (stereo unspecified)?
Answer: log10cfu [1]: 1.8; log10cfu [2]: 1.5

Question: Which results are given for `NNC(=O)c1ccncc1` [ISONIAZID]?
Answer: MIC [3]: 0.06 µg/mL (≈ 0.438 µM); MIC [4]: 0.03 µg/mL (≈ 0.219 µM); MIC [5]: 0.03 µg/mL (≈ 0.219 µM); MIC [6]: 0.06 µg/mL (≈ 0.438 µM); MIC [7]: 0.03 µg/mL (≈ 0.219 µM); log10cfu [1]: 1.4; log10cfu [2]: 1; MIC [8]: 0.06 µg/mL (≈ 0.438 µM); MIC [9]: 0.03 µg/mL (≈ 0.219 µM); MIC [10]: 0.03 µg/mL (≈ 0.219 µM); MIC [11]: 0.03 µg/mL (≈ 0.219 µM); MIC [12]: 0.03 µg/mL (≈ 0.219 µM); MIC [13]: 0.03 µg/mL (≈ 0.219 µM); MIC [14]: 0.06 µg/mL (≈ 0.438 µM)

Question: For `Cc1ncc([N+](=O)[O-])n1CCO` [METRONIDAZOLE], which log10cfu [1] is on record?
Answer: The log10cfu was 2.8.

Question: What about the log10cfu [2] of the same compound?
Answer: The log10cfu was 3.2.

Question: Which results are given for `O=[N+]([O-])c1cn2c(n1)OC[C@@H](OCc1ccc(OC(F)(F)F)cc1)C2` [PRETOMANID]?
Answer: MIC [3]: 0.25 µg/mL (≈ 0.696 µM); Activity [15]: Active; MIC [4]: 0.06 µg/mL (≈ 0.167 µM); MIC [5]: 0.06 µg/mL (≈ 0.167 µM); Activity [16]: Toxic; MIC [6]: 0.06 µg/mL (≈ 0.167 µM); MIC [7]: 0.015 µg/mL (≈ 0.0418 µM); log10cfu [1]: 3.5; log10cfu [2]: 3.1; Activity [17]: Active; Activity [18]: Active; MIC [8]: 0.06 µg/mL (≈ 0.167 µM); Activity [19]: Active; MIC [9]: 0.06 µg/mL (≈ 0.167 µM); Activity [20]: Active; Activity [21]: Active; MIC [10]: 0.13 µg/mL (≈ 0.362 µM); MIC [11]: 0.06 µg/mL (≈ 0.167 µM); Activity [22]: Toxic; MIC [12]: 0.13 µg/mL (≈ 0.362 µM); MIC [13]: 0.06 µg/mL (≈ 0.167 µM); Activity [23]: Active; MIC [14]: 0.13 µg/mL (≈ 0.362 µM)
